According to article PMC5218480 (PLoS ONE, 2017):

System: MV-4-11 cells
Assay: Gene expression microarray analysis (Affymetrix PrimeView) and GSEA
Type: cell-based, human
Design: RFU PODN (11730768_x_at) / Fold change /veh PODN (11730768_x_at) / RFU LINC00158 (11744669_a_at) / Fold change /veh LINC00158 (11744669_a_at) / RFU DUSP10 (11751237_a_at) / Fold change /veh DUSP10 (11751237_a_at) / RFU ID3 (11757404_x_at) / Fold change /veh ID3 (11757404_x_at) / RFU PLEKHG5 (11737974_s_at) / Fold change /veh PLEKHG5 (11737974_s_at) / RFU LRRC4B (11730491_at) / Fold change /veh LRRC4B (11730491_at) / RFU GIMAP4 (11747438_a_at) / Fold change /veh GIMAP4 (11747438_a_at) / RFU KRT8 (11758183_x_at) / Fold change /veh KRT8 (11758183_x_at) / RFU CNN1 (11734310_a_at) / Fold change /veh CNN1 (11734310_a_at) / RFU VPS37D (11726825_at) / Fold change /veh VPS37D (11726825_at) / RFU C10orf10 (11716522_x_at) / Fold change /veh C10orf10 (11716522_x_at) / RFU KIR2DL2 /// KIR2DL4 /// KIR2DL5A /// KIR2DL5B /// KIR2DS1 /// KIR2DS2 /// KIR2DS3 /// KIR2DS4 /// KIR3DL3 /// KIR3DL3 /// KIR3DS1 (11738374_at) / Fold change /veh KIR2DL2 /// KIR2DL4 /// KIR2DL5A /// KIR2DL5B /// KIR2DS1 /// KIR2DS2 /// KIR2DS3 /// KIR2DS4 /// KIR3DL3 /// KIR3DL3 /// KIR3DS1 (11738374_at) / RFU C1QL1 (11718748_at) / Fold change /veh C1QL1 (11718748_at) / RFU TMPRSS4 (11747572_a_at) / Fold change /veh TMPRSS4 (11747572_a_at) / RFU HAMP (11756126_x_at) / Fold change /veh HAMP (11756126_x_at) / RFU RNFT2 (11725882_a_at) / Fold change /veh RNFT2 (11725882_a_at) / RFU NR4A2 (11747474_a_at) / Fold change /veh NR4A2 (11747474_a_at) / RFU ABCC12 (11746883_a_at) / Fold change /veh ABCC12 (11746883_a_at) / RFU TMEM136 (11760407_x_at) / Fold change /veh TMEM136 (11760407_x_at) / RFU CLDN22 /// WWC2 (11732394_at) / Fold change /veh CLDN22 /// WWC2 (11732394_at) / RFU HLA-DPB1 (11760878_x_at) / Fold change /veh HLA-DPB1 (11760878_x_at) / RFU SPINT1 (11716480_a_at) / Fold change /veh SPINT1 (11716480_a_at) / RFU GAP43 (11754022_s_at) / Fold change /veh GAP43 (11754022_s_at) / RFU A4GNT (11735810_at) / Fold change /veh A4GNT (11735810_at) / RFU PRB3 (11715151_x_at) / Fold change /veh PRB3 (11715151_x_at) / RFU TUBB4B (11761932_at) / Fold change /veh TUBB4B (11761932_at) / RFU CAPN14 (11732068_a_at) / Fold change /veh CAPN14 (11732068_a_at) / RFU TMCC2 (11721928_a_at) / Fold change /veh TMCC2 (11721928_a_at) / RFU IRGQ (11745062_a_at) / Fold change /veh IRGQ (11745062_a_at) / RFU FAM174B (11720279_a_at) / Fold change /veh FAM174B (11720279_a_at) / RFU TMPRSS4 (11748680_a_at) / Fold change /veh TMPRSS4 (11748680_a_at) / RFU FAM212B (11763350_a_at) / Fold change /veh FAM212B (11763350_a_at) / RFU PLEKHG5 (11743358_a_at) / Fold change /veh PLEKHG5 (11743358_a_at) / RFU ZSCAN30 (11745921_a_at) / Fold change /veh ZSCAN30 (11745921_a_at) / RFU CMKLR1 (11741424_a_at) / Fold change /veh CMKLR1 (11741424_a_at) / RFU LOC101060620 /// MAPK8IP1 (11723275_at) / Fold change /veh LOC101060620 /// MAPK8IP1 (11723275_at) / RFU SPTSSB (11747773_x_at) / Fold change /veh SPTSSB (11747773_x_at) / RFU PRSS12 (11739890_at) / Fold change /veh PRSS12 (11739890_at) / RFU BIN1 (11741810_x_at) / Fold change /veh BIN1 (11741810_x_at) / RFU WNT11 (11732464_a_at) / Fold change /veh WNT11 (11732464_a_at) / RFU C10orf10 (11716521_a_at) / Fold change /veh C10orf10 (11716521_a_at) / RFU C5orf56 (11738089_at) / Fold change /veh C5orf56 (11738089_at) / RFU CYB561 (11721691_x_at) / Fold change /veh CYB561 (11721691_x_at) / RFU ANKRD19P (11752326_a_at) / Fold change /veh ANKRD19P (11752326_a_at) / RFU OR2T12 /// OR2T33 /// OR2T8 (11738714_s_at) / Fold change /veh OR2T12 /// OR2T33 /// OR2T8 (11738714_s_at) / RFU VCAN (11748164_a_at) / Fold change /veh VCAN (11748164_a_at) / RFU JSRP1 (11732532_at) / Fold change /veh JSRP1 (11732532_at) / RFU KRTAP10-11 (11738290_x_at) / Fold change /veh KRTAP10-11 (11738290_x_at) / RFU MYO3A (11730013_a_at) / Fold change /veh MYO3A (11730013_a_at) / RFU EBF3 (11725865_a_at) / Fold change /veh EBF3 (11725865_a_at) / RFU CAMK2N1 (11719241_x_at) / Fold change /veh CAMK2N1 (11719241_x_at) / RFU C5orf56 (11738088_a_at) / Fold change /veh C5orf56 (11738088_a_at) / RFU OLFML3 (11715873_a_at) / Fold change /veh OLFML3 (11715873_a_at) / RFU LOC100653217 /// NTM (11731650_a_at) / Fold change /veh LOC100653217 /// NTM (11731650_a_at) / RFU MAPK11 (11762145_a_at) / Fold change /veh MAPK11 (11762145_a_at) / RFU FIZ1 (11724087_x_at) / Fold change /veh FIZ1 (11724087_x_at) / RFU OASL (11726364_x_at) / Fold change /veh OASL (11726364_x_at) / RFU SOX15 (11748057_x_at) / Fold change /veh SOX15 (11748057_x_at) / RFU CD79A (11719716_a_at) / Fold change /veh CD79A (11719716_a_at) / RFU HIST1H1D (11736915_at) / Fold change /veh HIST1H1D (11736915_at) / RFU CASKIN2 (11723855_a_at) / Fold change /veh CASKIN2 (11723855_a_at) / RFU LOC730098 (11760151_x_at) / Fold change /veh LOC730098 (11760151_x_at) / RFU OR4N2 (11742367_at) / Fold change /veh OR4N2 (11742367_at) / RFU PRRT2 (11749266_a_at) / Fold change /veh PRRT2 (11749266_a_at) / RFU SNX32 (11753110_a_at) / Fold change /veh SNX32 (11753110_a_at) / RFU CDHR5 (11726645_a_at) / Fold change /veh CDHR5 (11726645_a_at) / RFU RCAN1 (11760418_a_at) / Fold change /veh RCAN1 (11760418_a_at) / RFU FAM167A (11723789_a_at) / Fold change /veh FAM167A (11723789_a_at) / RFU FAM26E (11764081_at) / Fold change /veh FAM26E (11764081_at) / RFU ISYNA1 (11749810_s_at) / Fold change /veh ISYNA1 (11749810_s_at) / RFU ACY1 (11761880_at) / Fold change /veh ACY1 (11761880_at) / RFU 11764098_at / Fold change /veh 11764098_at / RFU SAMD14 (11745864_x_at) / Fold change /veh SAMD14 (11745864_x_at) / RFU NPB (11741838_a_at) / Fold change /veh NPB (11741838_a_at) / RFU TMPRSS6 (11731388_a_at) / Fold change /veh TMPRSS6 (11731388_a_at) / RFU KRTAP10-2 (11738614_at) / Fold change /veh KRTAP10-2 (11738614_at) / RFU ARHGAP8 /// PRR5-ARHGAP8 (11727945_x_at) / Fold change /veh ARHGAP8 /// PRR5-ARHGAP8 (11727945_x_at) / RFU KRTAP5-7 /// NADSYN1 (11734609_at) / Fold change /veh KRTAP5-7 /// NADSYN1 (11734609_at) / RFU RASL12 (11751679_a_at) / Fold change /veh RASL12 (11751679_a_at) / RFU CDKN2B (11736163_a_at) / Fold change /veh CDKN2B (11736163_a_at) / RFU PRF1 (11729649_at) / Fold change /veh PRF1 (11729649_at) / RFU, ZNF638 /// ZNF638-IT1 / Fold change vs veh, ZNF638 /// ZNF638-IT1 / RFU, PANK3 / Fold change vs veh, PANK3 / RFU, SH3YL1 / Fold change vs veh, SH3YL1 / RFU, ZEB2 / Fold change vs veh, ZEB2 / RFU, NRIP1 / Fold change vs veh, NRIP1 / RFU, PTTG1IP / Fold change vs veh, PTTG1IP / RFU, CAPN2 / Fold change vs veh, CAPN2 / RFU, MED14 / Fold change vs veh, MED14 / RFU, SNORA58 / Fold change vs veh, SNORA58 / RFU, C1orf63 / Fold change vs veh, C1orf63 / RFU, LRRFIP1 / Fold change vs veh, LRRFIP1 / RFU, NDUFAF7 / Fold change vs veh, NDUFAF7 / RFU, SLC12A2 / Fold change vs veh, SLC12A2 / RFU, IBTK / Fold change vs veh, IBTK / RFU, ESF1 / Fold change vs veh, ESF1 / Fold change vs veh, TMEM50B / RFU, TAOK1 / Fold change vs veh, TAOK1 / RFU, ACBD3 / Fold change vs veh, ACBD3 / RFU, TMA16 / Fold change vs veh, TMA16 / RFU, RWDD3 / Fold change vs veh, RWDD3 / RFU, BCAT1 / Fold change vs veh, BCAT1 / RFU, EDEM3 / Fold change vs veh, EDEM3 / RFU, TMEM33 / Fold change vs veh, TMEM33 / RFU, WDR75 / Fold change vs veh, WDR75 / RFU, AHCTF1 / Fold change vs veh, AHCTF1 / RFU, TFRC / Fold change vs veh, TFRC / RFU, ZDHHC17 / Fold change vs veh, ZDHHC17 / RFU, NOM1 / Fold change vs veh, NOM1 / RFU, ARL8B / Fold change vs veh, ARL8B / RFU, ZBTB11 / Fold change vs veh, ZBTB11 / RFU, TAMM41 / Fold change vs veh, TAMM41 / RFU, KIAA1704 /// LOC100996395 / Fold change vs veh, KIAA1704 /// LOC100996395 / RFU, ING1 / Fold change vs veh, ING1 / RFU, TRMT61B / Fold change vs veh, TRMT61B / RFU, FUBP3 / Fold change vs veh, FUBP3 / RFU, TP53 / Fold change vs veh, TP53 / RFU, TNKS2 / Fold change vs veh, TNKS2 / RFU, ZFP14 / Fold change vs veh, ZFP14 / RFU, ACTR2 / Fold change vs veh, ACTR2 / RFU, PPP3R1 / Fold change vs veh, PPP3R1 / RFU, PIK3R1 / Fold change vs veh, PIK3R1 / RFU, HNRNPA1 / Fold change vs veh, HNRNPA1 / RFU, RNF170 / Fold change vs veh, RNF170 / RFU, ZNF28 / Fold change vs veh, ZNF28 / RFU, RNGTT / Fold change vs veh, RNGTT / RFU, OGT / Fold change vs veh, OGT / RFU, BRD1 / Fold change vs veh, BRD1 / RFU, MARS / Fold change vs veh, MARS / RFU, ZNF655 / Fold change vs veh, ZNF655 / RFU, FAHD1 / Fold change vs veh, FAHD1 / RFU, BDP1 / Fold change vs veh, BDP1 / RFU, LRRCC1 / Fold change vs veh, LRRCC1 / RFU, ARID1A / Fold change vs veh, ARID1A / RFU, ZNF146 / Fold change vs veh, ZNF146 / RFU, ZNF330 / Fold change vs veh, ZNF330 / RFU, GPN3 / Fold change vs veh, GPN3 / RFU, C9orf123 / Fold change vs veh, C9orf123 / RFU, N4BP2L2 / Fold change vs veh, N4BP2L2 / RFU, ARFIP1 / Fold change vs veh, ARFIP1 / RFU, FAM179B / Fold change vs veh, FAM179B / RFU, BCL10 / Fold change vs veh, BCL10 / RFU, UHRF1BP1L / Fold change vs veh, UHRF1BP1L / RFU, BET1 / Fold change vs veh, BET1 / RFU, CNOT2 / Fold change vs veh, CNOT2 / RFU, ZNF268 / Fold change vs veh, ZNF268 / Fold change vs veh, ZNF507 / RFU, DGCR2 / Fold change vs veh, DGCR2 / RFU, WDSUB1 / Fold change vs veh, WDSUB1 / Fold change vs veh, HSP90B1 /// MIR3652 / RFU, ADSS / Fold change vs veh, ADSS / RFU, GK / Fold change vs veh, GK / RFU, ZNF148 / Fold change vs veh, ZNF148 / RFU, TAF9 / Fold change vs veh, TAF9 / RFU, SLC1A5 / Fold change vs veh, SLC1A5 / RFU, SLMO2 / Fold change vs veh, SLMO2 / RFU, ABCC4 / Fold change vs veh, ABCC4 / RFU, LOC101060439 /// RAP1B / Fold change vs veh, LOC101060439 /// RAP1B / RFU, RFX7 / Fold change vs veh, RFX7 / RFU, GTPBP10 / Fold change vs veh, GTPBP10 / RFU, CNEP1R1 / Fold change vs veh, CNEP1R1 / RFU, BIVM-ERCC5 /// ERCC5 / Fold change vs veh, BIVM-ERCC5 /// ERCC5 / RFU, ILF3 / Fold change vs veh, ILF3 / RFU 11762660_at / Fold change /veh 11762660_at / RFU VCAN (11757783_s_at) / Fold change /veh VCAN (11757783_s_at) / RFU DDX43 (11728927_at) / Fold change /veh DDX43 (11728927_at) / RFU KRT8 (11758188_x_at) / Fold change /veh KRT8 (11758188_x_at) / RFU NKD1 (11759106_at) / Fold change /veh NKD1 (11759106_at) / RFU SRD5A1 (11742802_a_at) / Fold change /veh SRD5A1 (11742802_a_at) / RFU TPSAB1 /// TPSB2 (11721975_s_at) / Fold change /veh TPSAB1 /// TPSB2 (11721975_s_at) / RFU GSTM3 (11746129_a_at) / Fold change /veh GSTM3 (11746129_a_at) / RFU IL23R (11737362_x_at) / Fold change /veh IL23R (11737362_x_at) / RFU TMEM51 (11727254_a_at) / Fold change /veh TMEM51 (11727254_a_at) / RFU PIWIL2 (11732686_x_at) / Fold change /veh PIWIL2 (11732686_x_at) / RFU ORM1 (11744905_x_at) / Fold change /veh ORM1 (11744905_x_at) / RFU CCDC152 (11743942_at) / Fold change /veh CCDC152 (11743942_at) / RFU ECM1 (11717891_a_at) / Fold change /veh ECM1 (11717891_a_at) / RFU IL23R (11748794_a_at) / Fold change /veh IL23R (11748794_a_at) / RFU TNFAIP8L3 (11732012_x_at) / Fold change /veh TNFAIP8L3 (11732012_x_at) / RFU MBOAT4 (11741988_at) / Fold change /veh MBOAT4 (11741988_at) / RFU 11764193_at / Fold change /veh 11764193_at / RFU TMEM53 (11763286_at) / Fold change /veh TMEM53 (11763286_at) / RFU MAGEB2 (11727129_at) / Fold change /veh MAGEB2 (11727129_at) / RFU TMEM200A (11744735_a_at) / Fold change /veh TMEM200A (11744735_a_at) / RFU CCDC152 (11751479_a_at) / Fold change /veh CCDC152 (11751479_a_at) / RFU FAM211A (11726209_a_at) / Fold change /veh FAM211A (11726209_a_at) / RFU RGS16 (11746705_a_at) / Fold change /veh RGS16 (11746705_a_at) / RFU VCAN (11755009_s_at) / Fold change /veh VCAN (11755009_s_at) / RFU RHOB (11743442_s_at) / Fold change /veh RHOB (11743442_s_at) / RFU RGS16 (11720943_a_at) / Fold change /veh RGS16 (11720943_a_at) / RFU RGS16 (11720944_at) / Fold change /veh RGS16 (11720944_at) / RFU, VPS4B / Fold change vs veh, VPS4B / RFU, CREB1 / Fold change vs veh, CREB1 / RFU, DNAJC13 / Fold change vs veh, DNAJC13 / RFU, GNAQ / Fold change vs veh, GNAQ / RFU, CDK5R1 / Fold change vs veh, CDK5R1 / RFU, ZRANB3 / Fold change vs veh, ZRANB3 / RFU, CUL4A / Fold change vs veh, CUL4A / RFU, CCNY / Fold change vs veh, CCNY / RFU, UFL1 / Fold change vs veh, UFL1 / RFU, COG3 / Fold change vs veh, COG3 / RFU, DIAPH2 / Fold change vs veh, DIAPH2 / RFU, SKA2 / Fold change vs veh, SKA2 / RFU, AFF3 / Fold change vs veh, AFF3 / RFU, LMF1 / Fold change vs veh, LMF1 / RFU, IPO11 / Fold change vs veh, IPO11 / RFU, DFFB / Fold change vs veh, DFFB / RFU, FOXP1 / Fold change vs veh, FOXP1 / RFU, CARD8 / Fold change vs veh, CARD8 / RFU, STRN3 / Fold change vs veh, STRN3 / RFU, ADK / Fold change vs veh, ADK / RFU, RASSF2 / Fold change vs veh, RASSF2 / RFU, WIPF1 / Fold change vs veh, WIPF1 / RFU, LARP1B / Fold change vs veh, LARP1B / RFU, RASA1 / Fold change vs veh, RASA1 / RFU, RB1 / Fold change vs veh, RB1 / RFU, PPFIA1 / Fold change vs veh, PPFIA1 / RFU, MAT2A / Fold change vs veh, MAT2A / RFU, CCT5 / Fold change vs veh, CCT5 / RFU, WDR92 / Fold change vs veh, WDR92 / RFU, CUX1 / Fold change vs veh, CUX1 / RFU, TTC7A / Fold change vs veh, TTC7A / RFU, TMEM135 / Fold change vs veh, TMEM135 / RFU, DEPTOR / Fold change vs veh, DEPTOR / RFU, CPM / Fold change vs veh, CPM / RFU, DNAJB6 / Fold change vs veh, DNAJB6 / RFU, CACNA2D3 / Fold change vs veh, CACNA2D3 / RFU, DTX4 / Fold change vs veh, DTX4 / RFU, TFCP2 / Fold change vs veh, TFCP2 / RFU, GMCL1 /// GMCL1P1 / Fold change vs veh, GMCL1 /// GMCL1P1 / RFU, AEBP2 / Fold change vs veh, AEBP2 / RFU, SNHG1 /// SNORD22 /// SNORD25 /// SNORD26 /// SNORD27 /// SNORD28 /// SNORD29 /// SNORD31 / Fold change vs veh, SNHG1 /// SNORD22 /// SNORD25 /// SNORD26 /// SNORD27 /// SNORD28 /// SNORD29 /// SNORD31 / Fold change (Aza/veh), C12orf56 (ProbeSet 11735607_a_at) / Fold change (ACY-1035/veh), C12orf56 (ProbeSet 11735607_a_at) / Fold change (Aza/veh), FGFR1OP (ProbeSet 11751329_s_at) / Fold change (ACY-1035/veh), FGFR1OP (ProbeSet 11751329_s_at) / Fold change (Aza/veh), VPS36 (ProbeSet 11739960_a_at) / Fold change (ACY-1035/veh), VPS36 (ProbeSet 11739960_a_at) / RFU SYPL1 (11715823_x_at) / Fold change /veh SYPL1 (11715823_x_at) / RFU IGFBP7 (11715501_s_at) / Fold change /veh IGFBP7 (11715501_s_at) / RFU REEP3 (11722064_at) / Fold change /veh REEP3 (11722064_at) / RFU IGLL1 (11728026_x_at) / Fold change /veh IGLL1 (11728026_x_at): dose or concentration left out as unconfirmed
Conditions: ProbeSet 11716931_at; LIST B

SMILES: Nc1ncn([C@@H]2O[C@H](CO)[C@@H](O)[C@H]2O)c(=O)n1 [azacitidine]
- Fold change vs veh, DGCR2: 0.93
